In patent publication US8435978B2, “Substituted sulfonamide compounds” (Gruenenthal GmbH, priority 2006, dated 2013):

Molecular target: T1, human B1R receptor (Homo sapiens, UniProt P46663)
T1 construct: host or cells: CHO K1 cells (Chinese hamster ovary), stably transfected
T1 sequence (P46663 1-353): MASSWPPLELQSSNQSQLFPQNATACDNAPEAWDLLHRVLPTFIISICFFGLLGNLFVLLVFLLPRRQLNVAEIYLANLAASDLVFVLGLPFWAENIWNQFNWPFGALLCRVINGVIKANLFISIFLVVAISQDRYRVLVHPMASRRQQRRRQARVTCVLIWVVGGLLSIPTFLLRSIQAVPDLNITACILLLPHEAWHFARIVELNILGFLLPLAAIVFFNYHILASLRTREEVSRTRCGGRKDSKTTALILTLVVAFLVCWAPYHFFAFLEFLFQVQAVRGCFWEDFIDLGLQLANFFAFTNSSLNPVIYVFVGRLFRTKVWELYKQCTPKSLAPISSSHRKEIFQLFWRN
Assay: Functional study on the bradykinin receptor 1 (B1R), FLIPR Ca2+ assay, hB1R cells
Type: cell-based
Conditions: test substance 10 μM; hB1R CHO K1 cells; agonist Lys-Des-Arg9-bradykinin 0.5 nM; % inhibition compared with the maximum achievable inhibition
Procedure, shortened: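 FLIPR Ca2+ read-out (Fluo-4, peak fluorescence) in stably transfected CHO K1 cells. Compounds at 10 μM, then 10 min later agonist challenge: human B1R with Lys-Des-Arg9-bradykinin 0.5 nM, rat B1R with Des-Arg9-bradykinin 100 nM; reported as % activation or % of maximal inhibition.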

B1R Antagonism, human [10 μM] % Inhibition: 101.66%
Structure (SMILES): COc1cc(C)c(S(=O)(=O)N2CCCCC2COCC(=O)N2CCN(C3CCN(C)CC3)CC2)c(C)c1 (stereo not shown) [Example 8, 2-[1-(4-methoxy-2,6-dimethyl-phenylsulfonyl)-piperidin-2-ylmethoxy]-1-[4-(1-methyl-piperidin-4-yl)-piperazin-1-yl]-ethanone]
